This note sets out measurements from patent US20250214990A1, “DIACYLGLYCEROL KINASE (DGK) ALPHA INHIBITORS AND USES THEREOF” (Insilico Medicine IP Limited, priority 2022, published 2025).

One data set concerns the target T1, DGKA (Homo sapiens, UniProt P23743).
T1 construct: purchased SignalChem D21-10BG
Put plainly: DGKA Inhibition ADP-Glo Assay. Type of data set: biochemical. Conditions: 40 μM ATP. As for the experimental part: The DGKA inhibition reactions were performed using ADP-Glo assay. The reactions were carried out in 50 mM HEPES, 100 mM NaCl, 10 mM MgCl2, 1 mM CaCl2, 0.005% TritonX-100 and 1 mM DTT as working solution (pH=7.5). 30 nL DMSO solution of each test compound (Top concentration […] with 10 point, 4-fold dilution series for each compound) were transferred to 384 well plate by Echo and 5 μL DGKA (SignalChem, D21-10BG) enzyme working solution at 2× final reaction concentration was added to each well. After incubated at 25° C. for 15 minutes, 5 μL substrate working solution contain 40 μM ATP (Promega, V915B) and 200 µM DLG (SignalChem, D430-59) were added to initiate reaction. After enzymatic reaction at 25° C. for 60 min, ADP Glo assay reagents (Promega, V9102) were added and luminescence was recorded using an EnVision following the instruction of manual. […] The IC50 value was calculated via a regression analysis of the inhibition rate.
Background: ADP-Glo turns the ADP formed in a reaction into a luminescent signal.

Data set [1] can be described thus: Mouse PK profile after oral administration. Conditions: for AUC(0-inf) / AUC(0-t) / Cmax / half-life: male, CD-1, plasma, mouse, oral, 5 mg/kg; for T1/2, Cmax and AUC compared with compound: mouse PK evaluation, comparison in words. It is filed as in vivo, Male CD-1 mice. As for the experimental part:
Species and strain: Male CD-1 mice of SPF. Source: Sino-British SIPPR/BK Lab Animal Ltd, Shanghai. 3 mice were orally gavage administrated with given compounds (Formulation: 5% DMSO+10% Solutol+85% Saline). The blood samples were taken via cephalic vein at timepoints 0.25 h, 0.5 h, 1 h, 2 h, 4 h, 6 h, 8 h and 24 h after oral gavage administration, 30 μL/time point. Blood samples were placed in tubes containing K2-EDTA and stored on ice until centrifuged. The blood samples were centrifuged at 6800 g for 6 minutes at 2-8° C. within 1 h after collected and stored frozen at approximately −80° C. An aliquot of 10 μL plasma samples were protein precipitated with 200 μL MeOH in which contains 10 ng/mL Verapamil (IS). The mixture was vortexed for 1 min and centrifuged at 18000 g for 7 min. Transfer 180 μL supernatant to 96 well plates. An aliquot of 6 μL supernatant was injected for LC-MS/MS analysis by LC-MS/MS-04 (API4000) instrument. The analytical results were confirmed using quality control samples for intra-assay variation. The accuracy of >66.7% of the quality control samples should be between 80-120% of the known value(s). Standard set of parameters including Area Under the Curve (AUC(0-t) and AUC(0-∞)), elimination half-live (T½), maximum plasma concentration (Cmax), will be calculated using noncompartmental analysis modules in FDA certified pharmacokinetic program Phoenix WinNonlin 7.0 (Pharsight, USA).

A further data set has as its system Human Pan T cells. Put plainly: IL-2 Release Detection Assay. Conditions: T-cell; for EC50: IL-2 in supernatant by ELISA, anti-CD3 pre-coated plate, 24 hours; for maximal fold induction: Top activation/DMSO control; for activity at 0.1 µM: curve value at 100 nM/DMSO control*100%, read-out: Activation % at 100 nM. It is filed as cell-based. The protocol:
Isolate Human Pan T cells from PBMC according to T cell isolation kit (Stemcell, 17951). The suspend T cell in RPMI 1640 medium containing 10% FBS, 1% PS and 55 µM β-Mer at a density of 3*10^6 cells/well/3 ml are seeded into 6 well plate, recovered overnight at 37° C.&[…]. Harvest overnight recovered T cells are suspended in fresh RPMI1640 medium containing 10% FBS, 1% PS and 55 μM f-Mer, seeded 1*10^5/well/200 μl cells into the anti-CD3 pre-coated 96 well plate. Add dilutions of compounds into the cells and incubate at 37° C.&5% CO2 for 24 hours. IL-2 in cell supernatant was detected by ELISA Kit (R&D, DY202). Fit the compound EC50 in non-linear regression equation: Y=Bottom+(Top−Bottom)/(1+10^((Log EC50−X)*HillSlope)), X=compound concentration, Y=Activation %. Top and Bottom: Plateaus in same units as Y. Log EC50: same log units as X. Activation fold: Top activation/DMSO control. Activation % at 100 nM: Activation of non-linear regression equation curve at the concentration of 100 nM/DMSO control*100%.
(In general: An ELISA detects its analyte on a solid surface through an enzyme-linked reagent.)

A short description of data set [2]: Rat PK profile after oral administration. It is filed as in vivo, Male SD rats. Conditions: for AUC(0-inf) / AUC(0-t) / Cmax / half-life: male, SD, plasma, rat, oral, 5 mg/kg; for T1/2, Cmax and AUC compared with compound: rat PK evaluation, comparison in words. As for the experimental part:
Species and strain: Male SD rats of SPF. Source: Sino-British SIPPR/BK Lab Animal Ltd, Shanghai. 3 rats were orally gavage administrated with given compounds (Formulation: 5% DMSO+10% Solutol+85% Saline). The blood samples were taken via submandibular vein or other suitable vein at timepoints 0.25 h, 0.5 h, 1 h, 2 h, 4 h, 6 h, 8 h and 24 h after oral gavage administration, 0.15 mL/time point. Blood samples were placed in tubes containing K2-EDTA and stored on ice until centrifuged. The blood samples were centrifuged at 6800 g for 6 minutes at 2-8° C. within 1 h after collected and stored frozen at approximately −80° C. An aliquot of 30 μL plasma samples were protein precipitated with 300 μL MeOH in which contains 100 ng/mL Verapamil (IS). The mixture was vortexed for 1 min and centrifuged at 18000 g for 7 min. Transfer 300 μL supernatant to 96 well plates. An aliquot of 8 μL supernatant was injected for LC-MS/MS analysis by LC-MS/MS-12 (TQ5500) instrument. The analytical results were confirmed using quality control samples for intra-assay variation. The accuracy of >66.7% of the quality control samples should be between 80-120% of the known value(s). Standard set of parameters including Area Under the Curve (AUC(0-t) and AUC(0-∞)), elimination half-live (T1/2), maximum plasma concentration (Cmax), will be calculated using noncompartmental analysis modules in FDA certified pharmacokinetic program Phoenix WinNonlin 7.0 (Pharsight, USA).

A value given as a limit tells only on which side of the number the result lay.

T1 sequence (P23743 whole entry): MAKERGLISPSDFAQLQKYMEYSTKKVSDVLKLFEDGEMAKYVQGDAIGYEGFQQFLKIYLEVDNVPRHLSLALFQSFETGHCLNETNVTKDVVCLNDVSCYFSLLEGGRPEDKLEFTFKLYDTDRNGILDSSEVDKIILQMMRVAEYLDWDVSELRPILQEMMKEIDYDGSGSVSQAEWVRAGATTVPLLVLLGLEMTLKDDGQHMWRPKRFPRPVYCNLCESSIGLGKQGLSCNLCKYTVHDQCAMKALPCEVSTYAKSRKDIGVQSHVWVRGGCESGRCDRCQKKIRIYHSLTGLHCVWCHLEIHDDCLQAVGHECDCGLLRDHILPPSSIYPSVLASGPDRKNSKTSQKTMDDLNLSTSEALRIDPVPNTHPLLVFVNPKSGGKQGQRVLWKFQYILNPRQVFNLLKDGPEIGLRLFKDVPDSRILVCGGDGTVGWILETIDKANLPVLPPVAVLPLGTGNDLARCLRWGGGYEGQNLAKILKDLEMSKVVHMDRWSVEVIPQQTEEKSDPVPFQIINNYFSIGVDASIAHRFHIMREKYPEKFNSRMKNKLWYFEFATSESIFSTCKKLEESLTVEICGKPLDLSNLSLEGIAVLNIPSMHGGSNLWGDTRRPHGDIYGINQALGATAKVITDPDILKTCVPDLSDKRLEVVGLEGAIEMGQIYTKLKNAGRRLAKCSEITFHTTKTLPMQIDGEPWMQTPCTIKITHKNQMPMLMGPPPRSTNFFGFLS

Broadly, the IC50 is the concentration needed to halve the response being measured. Low values mean greater potency in that assay, high ones weaker potency in that assay. One may read the AUC(0-inf) as total exposure, with the tail of the curve extrapolated. Lower therefore signals low exposure. By AUC(0-t) is commonly meant the area under the concentration-time curve up to a stated or last time point. One may read the Cmax as the maximum level reached in the sampled fluid or tissue. Broadly, the half-life is the time in which the quantity being followed falls by half. In general, EC50 refers to the concentration needed to bring the measured effect to its halfway point. High values mean lower potency in that assay, low ones higher potency in that assay. What is called maximal fold induction is the ratio of treated to control signal. High values mean a strong induction, low ones a weak induction. With `Cn1c(=O)nc(N2CCOCc3c(C#CC4(C(F)(F)F)CC4)cccc32)c2cc(Cl)ccc21` [Example 5, 6-chloro-1-methyl-4-(6-((1-(trifluoromethyl)cyclopropyl)ethynyl)-2,3-dihydrobenzo[e][1,4]oxazepin-1(5H)-yl)quinazolin-2(1H)-one], at DGKA, the half-maximal inhibitory concentration (IC50) is under 1 nM. In data set [1], this molecule showed an AUC(0-inf) of 7110 ng·h/mL, an AUC(0-t) of 6660 ng·h/mL, a peak concentration (Cmax) of 985 ng/mL and a half-life of 2.03 h. Besides, in the data set with Human Pan T cells, the EC50 was 444 nM, the maximal fold induction amounted to 7.7 and the activity at 0.1 µM came to 395%. In data set [2], this molecule gave an AUC(0-inf) of 3760 ng·h/mL, an exposure AUC(0-t) of 3470 ng·h/mL, a Cmax of 292 ng/mL and a half-life of 6.32 h.
Turning to `Cn1c(=O)nc(N2CCOCc3c(C#CC4(C(F)(F)F)CC4)cccc32)c2cc(C#N)c(OC3CCOC3)cc21` (stereo not drawn) [Example 12, 1-methyl-2-oxo-7-((tetrahydrofuran-3-yl)oxy)-4-(6-((1-(trifluoromethyl)cyclopropyl)ethynyl)-2,3-dihydrobenzo[e][1,4]oxazepin-1(5H)-yl)-1,2-dihydroquinazoline-6-carbonitrile], the IC50 against DGKA was under 1 nM. Besides, in data set [1], the total exposure AUC(0-inf) is 7870 ng·h/mL, the exposure AUC(0-t) was found to be 7740 ng·h/mL, the peak level (Cmax) was 1690 ng/mL and the half-life was 1.03 h. Also, in the data set on Human Pan T cells, it took 1080 nM to reach a half-maximal effect (EC50), the maximal fold induction was found to be 14.2 and the activity at 0.1 µM amounted to 311%.
Molecule `Cn1c(=O)nc(N2CCOCc3c(C#CC4(C(F)(F)F)CC4)cccc32)c2cc(Cl)c(OCCO)cc21` [Example 13, 6-chloro-7-(2-hydroxyethoxy)-1-methyl-4-(6-((1-(trifluoromethyl)cyclopropyl)ethynyl)-2,3-dihydrobenzo[e][1,4]oxazepin-1(5H)-yl)quinazolin-2(1H)-one] registered an IC50 against DGKA of under 1 nM. Further, in data set [1], the AUC(0-inf) stood at 28400 ng·h/mL, the AUC(0-t) came out at 26200 ng·h/mL, the peak level (Cmax) was 2400 ng/mL and the half-life was 6.13 h. Besides, the “T1/2, Cmax and AUC compared with compound” value in data set [1] was “longer T1/2, much higher Cmax and AUC”. In the data set with Human Pan T cells, the EC50 turned out to be 131 nM and the maximal fold induction amounted to 22.5. Besides, in data set [2], the AUC(0-t) was determined as 7520 ng·h/mL; the peak concentration (Cmax) was found to be 455 ng/mL; the “T1/2, Cmax and AUC compared with compound” value was “longer T1/2, much higher Cmax and AUC”.
Regarding `Cn1c(=O)nc(N2CCOCc3c(C#CC4CC4)cccc32)c2cc(Cl)c(OCCO)cc21` [Example 41, 6-chloro-4-(6-(cyclopropylethynyl)-2,3-dihydrobenzo[e][1,4]oxazepin-1(5H)-yl)-7-(2-hydroxyethoxy)-1-methylquinazolin-2(1H)-one], the half-maximal inhibitory concentration (IC50) on DGKA is under 1 nM. For the same molecule, in data set [1], the total exposure AUC(0-inf) worked out at 15500 ng·h/mL, the area under the curve AUC(0-t) is 15300 ng·h/mL, the Cmax came out at 2230 ng/mL and the half-life is 3.28 h. Also, the “T1/2, Cmax and AUC compared with compound” value in data set [1] was “longer T1/2, much higher Cmax and AUC”. In the data set on Human Pan T cells, it took 608 nM to reach a half-maximal effect (EC50), the maximal fold induction was determined as 26.3 and the activity at 0.1 µM worked out at 510%. In data set [2], this molecule gave a total exposure AUC(0-inf) of 12000 ng·h/mL, an area under the curve AUC(0-t) of 10200 ng·h/mL, a Cmax of 724 ng/mL and a half-life of 8.09 h. Further, the “T1/2, Cmax and AUC compared with compound” value in data set [2] is “longer T1/2, much higher Cmax and AUC”.
